# Measurements from patent publication US7368457B2, “Bridged N-arylsulfonylpiperidines as gamma-secretase inhibitors” (Schering Corporation, priority 2003, dated 2008).
# Target: T1, gamma secretase (Homo sapiens, UniProt P49768)
# T1 construct: endogenous in cells; host or cells: Membranes of 293 T-REx cells, clone pTRE.15; The enzyme is endogenous; only the substrate SPC99-Lon is transfected
# Experiment: Gamma secretase activity in membranes of 293 cells expressing C99 (SPC99-Lon), Aβ 40 / Aβ 42 ECL immunoassay
# Type: biochemical
# Details: not given
# Excerpt: Reagents. Antibodies WO2, G2-10, and G2-11 were obtained from Dr. Konrad Beyreuther (University of Heidelberg, Heidelberg, Germany). WO2 recognizes residues 5-8 of Aβ peptide, while G2-10 and G2-11 recognize the specific C-terminal structure of Aβ 40 and Aβ 42, respectively. Biotin-4G8 was purchased from Senetec (St. Louis, Mo.). All tissue culture reagents used in this work were from Life Technologies, Inc., unless otherwise specified. Pepstatin A was purchased from Roche Molecular Biochemicals; DFK167 was from Enzyme Systems Products (Livermore, Calif.).
# cDNA Constructs, Tissue Culture, and Cell Line Construction. […] Upon insertion into the membrane, the 17 amino acid signal peptide is processed, leaving an additional leucine at the N-terminus of Aβ SPC99-Ion was cloned into the pcDNA4/TO vector (Invitrogen) and transfected into 293 cells stably transfected with pcDNA6/TR, which is provided in the T-REx system (Invitrogen). The transfected cells were selected in Dulbecco's modified Eagle's media (DMEM) supplemented with 10% fetal bovine serum, 100 units/mL penicillin, 100 µg/mL streptomycin, 250 µg/mL zeocin, and 5 µg/mL blasticidin (Invitrogen). Colonies were screened for Aβ production by inducing C99 expression with […] tetracycline for 16-20 h and analyzing conditioned media with a sandwich immunoassay (see below). One of the clones, designated as pTRE.15, was used in these studies.
# Membrane Preparation. C99 expression in cells was induced with […] tetracycline for 20 h. The cells were pretreated with […] 12-myristate 13-acetate (PMA) and […] brefeldin A (BFA) for 5-6 h at 37 C before harvesting. The cells were washed 3 times with cold phosphate-buffered saline (PBS) and harvested in buffer A containing 20 mM Hepes (pH 7.5), 250 mM sucrose, 50 mM KCl, 2 mM EDTA, 2 mM EGTA, and Complete protease inhibitor tablets (Roche Molecular Biochemicals). The cell pellets were flash-frozen in liquid nitrogen and stored at −70 C before use.
# To make membranes, the cells were resuspended in buffer A and lysed in a nitrogen bomb at 600 psi. The cell lysate was centrifuged at 1500 g for 10 min to remove nuclei and large cell debris. The supernatant was centrifuged at 100000 g for 1 h. The membrane pellet was resuspended in buffer A plus 0.5 M NaCl, and the membranes were collected by centrifugation at 200000 g for 1 h. The salt-washed membrane pellet was washed again in buffer A and centrifuged at 100000 g for 1 h. The final membrane pellet was resuspended in a small volume of buffer A using a Teflon-glass homogenizer. The protein concentration was determined, and membrane aliquots were flash-frozen in liquid nitrogen and stored at −70° C.
# γ-Secretase Reaction and Aβ Analysis. To measure γ-secretase activity, membranes were incubated at 37° C. for 1 h in 50 μL of buffer containing 20 mM Hepes (pH 7.0) and 2 mM EDTA. At the end of the incubation, Aβ 40 and Aβ 42 were measured using an electrochemiluminescence (ECL)-based immunoassay. Aβ 40 was identified with antibody pairs TAG-G2-10 and biotin-WO2, while Aβ 42 was identified with TAG-G2-11 and biotin-4G8. The ECL signal was measured using an ECL-M8 instrument (IGEN International, Inc.) according to the manufacturer's instructions. The data presented were the means of the duplicate or triplicate measurements in each experiment.
row,Structure (SMILES),IC50 [nM]
1,O=C(O[C@H]1CCC2CCCC1N2S(=O)(=O)c1ccc(Cl)cc1)N1CCC(N2CCCCC2)CC1 (stereo partly shown) [Example 16],~16
2,O=C(O[C@@H]1CCC2CCCC1N2S(=O)(=O)c1ccc(Cl)cc1)N1CCC(N2CCCCC2)CC1 (stereo partly shown) [Example 15],1000 to 10000

# Same assay, conditions: gamma secretase membrane assay; ranges given as 'about 0.1 to about 1.0 μM' and 'about 1 to about 10 μM'; read-out: IC50
row,Structure (SMILES),IC50 [nM]
1,O=C(O[C@H]1CCC2CCC1N2S(=O)(=O)c1ccc(Cl)cc1)N1CCC(N2CCCCC2)CC1 (stereo partly shown) [Example 43],100 to 1000
2,O=C(O[C@@H]1C=CC2CCCC1N2S(=O)(=O)c1ccc(Cl)cc1)N1CCC(N2CCCCC2)CC1 (stereo partly shown) [Example 34],100 to 1000
3,CC(C)N1CCN(C(=O)OC2C[C@H]3CCC2N3S(=O)(=O)c2ccc(Cl)cc2)CC1 (stereo partly shown) [Example 40],1000 to 10000
4,O=C(O[C@H]1CCC2CCCC1N2S(=O)(=O)c1ccc(Cl)cc1)N1CCN(c2ccccc2)CC1 (stereo partly shown) [Example 23],100 to 1000
5,CN1CCN(C(=O)O[C@H]2CCC3CCCC2N3S(=O)(=O)c2ccc(Cl)cc2)CC1 (stereo partly shown) [Example 26],100 to 1000
6,O=C(O[C@H]1CCC2CCCC1N2S(=O)(=O)c1ccc(Cl)cc1)N1CCN(CCCO)CC1 (stereo partly shown) [Example 22],100 to 1000
7,O=C(O[C@H]1CCC2CCCC1N2S(=O)(=O)c1ccc(Cl)cc1)N1CCC[C@H]1CO (stereo partly shown) [Example 28],100 to 1000
8,CCN(CC)C(=O)C1CCCN(C(=O)O[C@H]2CCC3CCCC2N3S(=O)(=O)c2ccc(Cl)cc2)C1 (stereo partly shown) [Example 25],100 to 1000
9,O=C(O[C@H]1CCC2CCCC1N2S(=O)(=O)c1ccc(Cl)cc1)N1CCN(CC2CC2)CC1 (stereo partly shown) [Example 17],100 to 1000
10,CC(C)N1CCN(C(=O)O[C@H]2CCC3CCCC2N3S(=O)(=O)c2ccc(Cl)cc2)CC1 (stereo partly shown) [Example 21],100 to 1000
11,O=C(O[C@H]1CCC2CCCC1N2S(=O)(=O)c1ccc(Cl)cc1)N1CCC(O)(c2ccc(Cl)cc2)CC1 (stereo partly shown) [Example 24],100 to 1000
12,O=C(OC1CC2CCC1N2S(=O)(=O)c1ccc(Cl)cc1)N1CCC(N2CCCCC2)CC1 (stereo not shown) [Example 35],1000 to 10000
13,O=C(O[C@H]1CCC2CCCC1N2S(=O)(=O)c1ccc(Cl)cc1)N1CCN(CCO)CC1 (stereo partly shown) [Example 14],100 to 1000
14,COC(=O)C1CCN(C(=O)O[C@H]2CCC3CCCC2N3S(=O)(=O)c2ccc(Cl)cc2)CC1 (stereo partly shown) [Example 27],100 to 1000
15,O=C(OC1C[C@H]2CCC1N2S(=O)(=O)c1ccc(Cl)cc1)N1CCN(C2CCCCC2)CC1 (stereo partly shown) [Example 36],1000 to 10000
16,CCN(Cc1ccncc1)C(=O)O[C@H]1CCC2CCCC1N2S(=O)(=O)c1ccc(Cl)cc1 (stereo partly shown) [Example 29],100 to 1000
17,CCN1CCN(C(=O)OC2C[C@H]3CCC2N3S(=O)(=O)c2ccc(Cl)cc2)CC1 (stereo partly shown) [Example 37],1000 to 10000
